“Also recorded” adds a separate entry of the source. Read-outs that look alike come from different tables or passages of the source.
Target: T1, AnKir1 (Anopheles gambiae, UniProt A0A075M2J8)
T1 sequence (A0A075M2J8 1-555): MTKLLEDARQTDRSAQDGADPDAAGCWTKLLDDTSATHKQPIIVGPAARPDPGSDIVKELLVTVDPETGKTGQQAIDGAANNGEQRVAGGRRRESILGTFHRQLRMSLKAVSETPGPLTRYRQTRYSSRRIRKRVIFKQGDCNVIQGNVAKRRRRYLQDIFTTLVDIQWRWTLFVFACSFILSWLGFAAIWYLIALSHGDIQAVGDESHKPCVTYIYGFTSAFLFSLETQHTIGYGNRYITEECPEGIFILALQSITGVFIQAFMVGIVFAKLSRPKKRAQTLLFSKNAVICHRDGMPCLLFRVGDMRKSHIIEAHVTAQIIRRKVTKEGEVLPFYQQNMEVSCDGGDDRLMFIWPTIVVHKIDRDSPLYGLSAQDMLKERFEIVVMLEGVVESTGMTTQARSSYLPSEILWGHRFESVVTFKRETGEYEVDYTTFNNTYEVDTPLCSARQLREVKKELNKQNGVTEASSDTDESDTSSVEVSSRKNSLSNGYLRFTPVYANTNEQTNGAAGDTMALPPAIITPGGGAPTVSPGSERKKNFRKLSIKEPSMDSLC
Test: Tl+ flux assay in T-REx-HEK293 cells expressing AnKir1
Type: cell-based
Experimental: Tl^+ flux assays were performed essentially as described previously. Briefly, stably transfected T-Rex-HEK-293 cells expressing AnKir1 channels were cultured overnight in 384-well plates (20,000 cells/20 μL/well black-walled, clear-bottomed BD PureCoat amine-coated plates (BD, Bedford, MA) with a plating media containing DMEM, 10% dialyzed FBS and 1 μg/mL tetracycline. Approximately twenty-four hours after cell plating, the cell culture medium was replaced with a dye-loading solution containing assay buffer (Hanks Balanced Salt Solution with 20 mM HEPES, pH 7.3), 0.01% (w/v) Pluronic F-127 (Life Technologies, Carlsbad, CA), and 1.2 μM of the thallium-sensitive dye Thallos-AM (TEFlabs, Austin, TX). Following 1 hr incubation at room temperature, the dye-loading solution was washed from the plates and replaced with 20 μL/well of assay buffer.
Tl+ flux assay development
Tl+ flux assays were performed essentiall y as described previousl y (1). Briefl y, stabl y transfect ed T-Rex -HEK- 293- AnKir1 cells were cultured overnight in 384-well plates in media containing DMEM, 10% dial yz ed FBS and 1μg/ m L tetrac ycline to induce channel expression
(Fig. S1A). The next day, the cell culture medium was replaced with a dye-loading solution containing assay buffer (Hanks Balanced Salt Solution with 20 mM HEPES, pH 7.3), 0.01% (w/v) Pluronic F-127 (Li fe Technologies, Carlsbad, CA), and 1.2 μM of the thallium-sensitive dye Thallos-AM (TEFl abs, Austin, TX). Following 1 hr incubation at room temperature, the d ye-loading solution was washed from the plates and replaced with 20 μ L/well of assa y buffer. The plates were transferred t o a Ham amatsu Functional Drug Screening System 6000 (FDSS6000; Hamamatsu, Tokyo, J apan) where 20 μ L/well of test compounds in assay buffer (as prepared below) were added and allowed to incubate with the cells for 20 min. After the incubation period, a baseline recordi ng was collected at 1 Hz for 10 s (excitation 470 ± 20 nm, emission 540 ± 30 nm) followed by a t hallium stimulus buffer addition (10 μL/well) and data collection for an additional 4 min. The Tl + stimulus buffer contains in (mM) 125 NaHCO3, 1.8 CaSO4, 1 MgSO4, 5 glucose, 12 Tl2SO4, 10 HEPES, pH 7.4. For Tl + flux assays on Kir2.x, Kir4.1 and Kir6.2/SUR1 ex pressing cells, the Tl+ stimulus buffer contained 1.8 mM Tl 2SO4. To ensure the small-molecule vehicle DMSO had no direct effect on An Ki r1-dependent Tl+ flux, the assa y’s tolerance to different doses of DMSO was evaluated (Fig. S1B). The robustness and reproducibility of the assay was determined by comparing Tl+ flux through tetracycline-induced and tetracycline-uninduced cells (Fig. S1C). The Z’ value was calculated as described previously (1 ), using the […]
Z’ = 1- (3SD p + 3SD n)/ |meanp + meann | where SD is standard deviation, p and n are control and uninduced flux values respectivel y.
To compare the effect of DMSO on An Kir1-mediated Tl+ flux, a one-way ANOVA was performed with a Tuke y’s multiple comparison test. Prism software (GraphPad Software) was used to generate CRC from Tl+ fl ux ..Half-inhibition concentration (IC50) values were calculated from fits using a four parameter logistic equation.
High-throughput screeni ng
The test compounds were transferred to daughter pol yprop ylene 384-well plates (G reiner Bio-One, Monroe, NC) using an Echo555 liquid handler (Labcyte, Sunnyvale, CA), and then diluted into assay buffer to generat e a 2X stock in 0.6% DMSO (0.3% final). For Tl+ flux assays on Kir6.2/SUR1 expressing cells, test compounds were diluted in assay buffer containing diazoxide (250 μM final) to induce channel activation. Concentration- response curves (CRCs) were gener ated b y screening compounds at 3-fold dilution series (1 nM - 30 μM).
Tl+ flux data were anal yzed as previousl y d escri bed (2, 3) using a combination of Excel (Microsoft Corp, Redmond, WA) with XLfit add-in (IDBS, Guildford, Surre y, UK), Ori ginPro […]

[1] = Tl+ flux assay, read-out: AnKir1 IC50 (Tl+ flux)
[2] = Tl+ flux, Tables S2/S3 and supplemental text, read-out: AnKir1 IC50

| SMILES | IC50 [2] | also measured |
| --- | --- | --- |
| O=C(Cn1nc(C(F)(F)F)c2c1CCCC2)N1CCCc2ccccc21 [VU041, 1-(3,4-dihydroquinolin-1(2H)-yl)-2-(3-(trifluoromethyl)-4,5,6,7-tetrahydro-1H-indazol-1-yl)ethan-1-one] | 2.3 µM | Hill-coefficient (Tl+ flux, AnKir1) (Tl+ flux CRC): 1.1; IC50 [1]: 2.5 µM |
| O=C(Cn1nc(C(F)(F)F)c2c1CCCC2)N1CCCC(c2ccccc2)C1 (stereo not shown) [Compound 12] | 5.6 µM |  |
| CC1CC(C)CN(C(=O)Cn2nc(C(F)(F)F)c3c2CCCC3)C1 (stereo not shown) [Compound 13] | 4.5 µM |  |
| O=C(Cn1nc(C(F)(F)F)c2c1CCCC2)N1CCCC2CCCCC21 (stereo not shown) [Compound 9] | 6.7 µM |  |
| O=C(Cn1ncc2c1CCOC2)N1CCCc2ccccc21 [VU730] |  | IC50 [1]: 2.4 µM |
| O=C(Cn1nc(C(F)(F)F)c2c1CCCC2)NC1CCC1 [VU937] |  | AnKir1 IC50 (Tl+ flux, Tables S2/S3 and supplemental text, listed as 18): not tolerated; also recorded: inactive; inhibition at 30 µM (at 30 μM, read-out: inhibition of AnKir1-mediated Tl+ flux): < 50% |
| O=C1CCCc2c1ccn2CC(=O)N1CCCc2ccccc21 [Compound 4] | 12.1 µM |  |
